This is an account of results in patent publication US20110212968A1, “PHENETHYLAMIDE DERIVATIVES AND THEIR HETEROCYCLIC ANALOGUES” (priority 2008, published 2011).

One assay concerns the target T1, human orexin-1 receptor (Homo sapiens, UniProt O43613).
T1 construct: expressed in transfected cells; host or cells: CHO (Chinese hamster ovary) cells, kept under G418 selection
T1 sequence (O43613 1-425): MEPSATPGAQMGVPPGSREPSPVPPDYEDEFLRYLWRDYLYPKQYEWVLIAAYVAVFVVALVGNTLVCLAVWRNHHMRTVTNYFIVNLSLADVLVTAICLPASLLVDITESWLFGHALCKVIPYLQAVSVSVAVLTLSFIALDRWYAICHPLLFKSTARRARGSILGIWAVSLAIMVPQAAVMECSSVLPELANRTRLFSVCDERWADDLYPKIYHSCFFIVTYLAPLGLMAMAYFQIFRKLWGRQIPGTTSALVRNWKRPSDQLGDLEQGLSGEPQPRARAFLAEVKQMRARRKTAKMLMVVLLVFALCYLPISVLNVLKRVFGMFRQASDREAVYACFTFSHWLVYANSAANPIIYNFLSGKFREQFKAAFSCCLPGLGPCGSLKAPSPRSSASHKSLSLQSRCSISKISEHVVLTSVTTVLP
In words: Intracellular calcium measurement (FLIPR Tetra), orexin receptor antagonistic activity, OX1. The conditions noted are these: CHO cells expressing human orexin-1 receptor, 3 nM orexin-A. The assay is classed as cell-based. Here is the method: (§1) The orexin receptor antagonistic activity of the compounds of formula (I) is determined in accordance with one of the following experimental methods.
(§2) Chinese hamster ovary (CHO) cells expressing the human orexin-1 receptor and the human orexin-2 receptor, respectively, are grown in culture medium (Ham F-12 with L-Glutamine) containing 300 μg/ml G418, 100 U/ml penicillin, 100 μg/ml streptomycin and 10% heat inactivated fetal calf serum (FCS). The cells are seeded at 20,000 cells/well into 384-well black clear bottom sterile plates (Greiner). The seeded plates are incubated overnight at 37° C. in 5% CO2.
(§3) Human orexin-A as an agonist is prepared as 1 mM stock solution in MeOH:water (1:1), diluted in HBSS containing 0.1% bovine serum albumin (BSA), NaHCO3: 0.375 g/l and 20 mM HEPES for use in the assay at a final concentration of 3 nM. Antagonists are prepared as 10 mM stock solution in DMSO, then diluted in 384-well plates, first in DMSO, then in HBSS containing 0.1% bovine serum albumin (BSA), NaHCO3: 0.375 g/l and 20 mM HEPES.
(§4) On the day of the assay, 50 μl of staining buffer (HBSS containing 1% FCS, 20 mM HEPES, NaHCO3: 0.375 g/l, 5 mM probenecid (Sigma) and 3 μM of the fluorescent calcium indicator fluo-4 AM (1 mM stock solution in DMSO, containing 10% pluronic) is added to each well.
(§5) The 384-well cell-plates are incubated for 50 min at 37° C. in 5% CO2 followed by equilibration at RT for 30-120 min before measurement.
(§6) Within the Fluorescent Imaging Plate Reader (FLIPR Tetra, Molecular Devices), antagonists are added to the plate in a volume of 10 μl/well, incubated for 10 min and finally 10 μl/well of agonist is added. Fluorescence is measured for each well at 1 second intervals, and the height of each fluorescence peak is compared to the height of the fluorescence peak induced by 3 nM orexin-A with vehicle in place of antagonist. For each antagonist, the IC50 value (the concentration of compound needed to inhibit 50% of the agonistic response) is determined and may be normalized using the obtained IC50 value of a on-plate reference compound (normalized values in Table 1 are indicated by an asterisk *). With the FLIPR Tetra, two different conditions (conditions A and conditions B) were used, differing in adjustment of pipetting speed and cell splitting regime. The calculated IC50 values of the compounds may fluctuate depending on the daily cellular assay performance. Fluctuations of this kind are known to those skilled in the art.

A further assay concerns the target T2, human orexin-2 receptor (Homo sapiens, UniProt O43614).
T2 construct: expressed in transfected cells; host or cells: CHO (Chinese hamster ovary) cells, kept under G418 selection
T2 sequence (O43614 1-444): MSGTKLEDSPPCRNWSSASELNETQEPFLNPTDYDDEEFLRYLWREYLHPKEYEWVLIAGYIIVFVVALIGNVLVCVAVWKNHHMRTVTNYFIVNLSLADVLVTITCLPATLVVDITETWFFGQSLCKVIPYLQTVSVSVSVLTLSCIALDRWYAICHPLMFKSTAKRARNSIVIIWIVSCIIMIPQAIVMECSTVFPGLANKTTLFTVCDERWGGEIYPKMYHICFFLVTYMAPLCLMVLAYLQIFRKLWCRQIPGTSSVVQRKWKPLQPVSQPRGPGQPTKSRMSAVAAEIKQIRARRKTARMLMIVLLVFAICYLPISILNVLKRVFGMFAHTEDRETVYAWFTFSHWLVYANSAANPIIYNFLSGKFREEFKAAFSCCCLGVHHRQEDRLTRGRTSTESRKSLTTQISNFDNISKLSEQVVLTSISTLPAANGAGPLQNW
The assay is described as follows: Intracellular calcium measurement (FLIPR Tetra), orexin receptor antagonistic activity, OX2. The class given is cell-based. Conditions: CHO cells expressing human orexin-2 receptor, 3 nM orexin-A. The method, then: as §1, §2, §3, §4, §5, §6
(In general: Calcium flux is commonly read through the fluorescence of an indicator in the cells.)

The mark [1] stands for this setting: conditions B, normalized (*) using IC50 of on-plate reference compound.

As for “2-Methyl-5-m-tolyl-thiazole-4-carboxylic acid [2-cyclopropyl-amino-2-(3,4-dimethoxy-phenyl)-ethyl]-cyclopropylmethyl-amide [Example 432]”, the results for the IC50 on human orexin-1 receptor (conditions B) and on human orexin-2 receptor (conditions B) were 234 nM and 75 nM, respectively.
In the case of `COc1ccc2[nH]cc(CC(C)N(CC3CC3)C(=O)c3nc(C)sc3-c3ccc(OC)nc3)c2c1` (racemic) [Example 385], the IC50 (commonly the midpoint of a concentration-inhibition curve) turned out to be 23 nM at human orexin-1 receptor (setting [1]) and 25 nM at human orexin-2 receptor (setting [1]).
On to `COc1ccc(CCN(CC2CC2)C(=O)c2nc(C)sc2-c2ccccc2)cc1OC` [Example 18, 2-Methyl-5-phenyl-thiazole-4-carboxylic acid cyclopropylmethyl-[2-(3,4-dimethoxy-phenyl)-ethyl]-amide], for which the IC50 on human orexin-1 receptor (conditions A) was determined as 925 nM; on human orexin-2 receptor (conditions A), 4 nM.
Regarding `COc1ccc(CCN(CC2CC2)C(=O)c2nc(C)sc2-c2cccc(C#N)c2)cc1OC` [Example 19, 5-(3-Cyano-phenyl)-2-methyl-thiazole-4-carboxylic acid cyclopropylmethyl-[2-(3,4-dimethoxy-phenyl)-ethyl]-amide], the IC50 on human orexin-1 receptor (conditions A) turned out to be 2200 nM; at human orexin-2 receptor (conditions A), 40 nM.
The corresponding values for `CCc1ccc(-c2sc(C)nc2C(=O)N(CCc2ccc(OC)c(OC)c2)CC2CC2)cc1` [Example 20, 5-(4-Ethyl-phenyl)-2-methyl-thiazole-4-carboxylic acid cyclopropylmethyl-[2-(3,4-dimethoxy-phenyl)-ethyl]-amide] are 2130 nM and 15 nM.
With `COc1ccc(CCN(CC2CC2)C(=O)c2nc(C3CC3)sc2-c2ccccc2)cc1OC` [Example 22, 2-Cyclopropyl-5-phenyl-thiazole-4-carboxylic acid cyclopropylmethyl-[2-(3,4-dimethoxy-phenyl)-ethyl]-amide], the IC50 on human orexin-1 receptor (conditions A) came out at 570 nM; on human orexin-2 receptor (conditions A), 35 nM.
In the same order, the values of `COc1ccc(CCN(CC2CC2)C(=O)c2nc(N(C)C)sc2-c2cccc(C)c2)cc1OC` [Example 30, 2-Dimethylamino-5-m-tolyl-thiazole-4-carboxylic acid cyclopropylmethyl-[2-(3,4-dimethoxy-phenyl)-ethyl]-amide] are 206 nM and 30 nM.
With `COc1ccc(CCN(CC2CC2)C(=O)c2ncsc2-c2ccccc2F)cc1OC` [Example 37, 5-(2-Fluoro-phenyl)-thiazole-4-carboxylic acid cyclopropylmethyl-[2-(3,4-dimethoxy-phenyl)-ethyl]-amide], the half-inhibitory concentration (IC50) came to 2690 nM at human orexin-1 receptor (conditions A) and 5 nM at human orexin-2 receptor (conditions A).
In the same order, the values of `COc1cccc(-c2oc(C)nc2C(=O)N(CCc2ccc(OC)c(OC)c2)CC2CC2)c1` [Example 42, 5-(3-Methoxy-phenyl)-2-methyl-oxazole-4-carboxylic acid cyclopropylmethyl-[2-(3,4-dimethoxy-phenyl)-ethyl]-amide] are 1010 nM and 20 nM.
`COc1ccc(CCN(CC2CC2)C(=O)c2nc(C)oc2-c2cccc(C(F)(F)F)c2)cc1OC` [Example 43, 2-Methyl-5-(3-trifluoromethyl-phenyl)-oxazole-4-carboxylic acid cyclopropylmethyl-[2-(3,4-dimethoxy-phenyl)-ethyl]-amide]: the IC50 on human orexin-1 receptor (conditions A) was 3120 nM; at human orexin-2 receptor (conditions A), 18 nM.
As for `COc1ccc(CCN(CC2CC2)C(=O)c2sc(C)nc2-c2ccc(Cl)cc2)cc1OC` [Example 48, 4-(4-Chloro-phenyl)-2-methyl-thiazole-5-carboxylic acid cyclopropylmethyl-[2-(3,4-dimethoxy-phenyl)-ethyl]-amide], the IC50 on human orexin-1 receptor (conditions A) was found to be 4920 nM; on human orexin-2 receptor (conditions A) it was 17 nM.
For `COc1ccc(CCN(CC2CC2)C(=O)c2sc(C)nc2-c2ccc(C)cc2)cc1OC` [Example 49, 2-Methyl-4-p-tolyl-thiazole-5-carboxylic acid cyclopropylmethyl-[2-(3,4-dimethoxy-phenyl)-ethyl]-amide], the IC50 on human orexin-1 receptor (conditions A) turned out to be 4230 nM; at human orexin-2 receptor (conditions A), 22 nM.
